Values quoted from earlier work in article PMC4621921 (Oncotarget, 2015).
Read-outs that look alike come from different tables or passages of the source.

Key:
[1] = in vivo
[2] = system: castration-resistant prostate cancer; design: method as in earlier work; conditions: phase 3, castration-resistant prostate cancer; no statistically significant improvement
prostate cancer = system: prostate cancer; design: method as in PMID 23169517; conditions: phase 2, prostate cancer
[3] = design: method as in PMID 23169517, PMID 24002501; conditions: clinical studies

Compound | common AEs [1] | median OS [2] [months] | evaluable patients with regression in soft tissue lesions (prostate cancer) [%] | PFS (prostate cancer; versus 5.9 weeks with placebo) [weeks] | common AEs [3]
COc1cc2c(Oc3ccc(NC(=O)C4(C(=O)Nc5ccc(F)cc5)CC4)cc3F)ccnc2cc1OCCCN1CCOCC1 [foretinib] | fatigue, hypertension, and gastrointestinal toxicities | – | – | – | –
COc1cc2nccc(Oc3ccc(NC(=O)C4(C(=O)Nc5ccc(F)cc5)CC4)cc3)c2cc1OC [cabozantinib] | – | 11 | 72 | 23.9 | fatigue, decreased appetite, and diarrhea
C[C@]12C=CC(=O)C=C1CC[C@@H]1[C@@H]2C(=O)C[C@@]2(C)[C@H]1CC[C@]2(O)C(=O)CO [prednisone] | – | 9.8 | – | – | –
